The text below walks through data of patent US10344049B2, “Substituted steroids for the treatment of cancer” (AQUAVAN TECHNOLOGY CO., LTD., priority 2017, dated 2019).

Where two headings read alike, the source gives them in different places.

Holding throughout (type): cell-based
Experiment [1] has as its system human leukemia cells U937. The experiment can be described thus: Cell viability test (Resazurin), U937 cells. The following applies: Homo sapiens. The procedure:
(§1) Cell viability was determined with Resazurin (at a final concentration of 25 μg/mL).
For orientation: The colour change of resazurin is a common sign of viable cells or microbes.

Experiment [2] deals with human breast cancer cells MDA-MB-231. Nature of the experiment: Cell viability test (Resazurin), MDA-MB-231 cells. The following applies: Homo sapiens. The procedure:
as §1

Experiment [3] deals with African green monkey kidney cells Vero. The experiment can be described thus: Cell viability test (Resazurin), Vero cells. The procedure:
as §1

The subject of experiment [4] is human lung cancer cells A549. The experiment can be described thus: Cell viability test (Resazurin), A549 cells. Set-up: evaluation of ability to inhibit cell growth activity (IC50): scale not given here. The following applies: for IC50: Homo sapiens. How it is done:
as §1

The subject of experiment [5] is human breast cancer cells MDA-MB-468. The experiment can be described thus: Cell viability test (Resazurin), MDA-MB-468 cells. The following applies: Homo sapiens. The procedure:
as §1

Experiment [6] deals with human liver cancer cells Mahlavu. Nature of the experiment: Cell viability test (Resazurin), Mahlavu cells. The following applies: for IC50: Homo sapiens, Mahlavu. How it is done: as §1
The subject of experiment [7] is human Glioblastoma cells U87-MG. The experiment can be described thus: Cell viability test (Resazurin), U87-MG cells. The following applies: Homo sapiens, U-87 MG. How it is done:
as §1

Experiment [8] relates to human colorectal cancer cells SW-480. The experiment can be described thus: Cell viability test (Resazurin), SW480 cells. The following applies: Homo sapiens. The procedure: as §1
Where [9] appears, read: 48 h, 0.1% FCS, Resazurin, read-out: inhibitory concentrations of cell growth activity IC50.
Where [10] appears, read: grade of the IC50 of Table 2, read-out: evaluation of ability to inhibit cell growth activity (IC50).

Consider `CO[C@H]1C=C2[C@@H](CC[C@H](O)C2(C)C)[C@]2(C=O)CC[C@]3(C)[C@@H]([C@H](C)C/C=C/C(C)(C)OC)CC[C@@]3(C)[C@H]12` [Compound 23], for which the IC50 in experiment [1] (U-937, 48 h, U937 cells, 48 hours, 0.1% FCS, Resazurin, read-out: inhibitory concentrations of cell growth activity IC50) is 5.75 µM; in experiment [1] (U-937, U937 cells, grade of the IC50 of Table 2, read-out: evaluation of ability to inhibit cell growth activity (IC50)), under 8 µM; in experiment [2] (MDA-MB-231, 48 h, MDA-MB-231 cells, 48 hours, 0.1% FCS, Resazurin, read-out: inhibitory concentrations of cell growth activity IC50) it was 7.91 µM; in experiment [2] (MDA-MB-231, MDA-MB-231 cells, grade of the IC50 of Table 2, read-out: evaluation of ability to inhibit cell growth activity (IC50)) it was under 8 µM; in experiment [3] (Chlorocebus sabaeus, Vero, 48 h, 0.1% FCS, Resazurin, read-out: inhibitory concentrations of cell growth activity IC50), 15.9 µM; in experiment [4] (A549, 48 h, A549 cells, 48 hours, 0.1% FCS, Resazurin, read-out: inhibitory concentrations of cell growth activity IC50), 15.3 µM. Further, the IC50 was 8 to 16 µM in experiment [4] (A549, A549 cells, grade of the IC50 of Table 2, read-out: evaluation of ability to inhibit cell growth activity (IC50)); 7.55 µM in experiment [5] (MDA-MB-468, 48 h, MDA-MB-468 cells, 48 hours, 0.1% FCS, Resazurin, read-out: inhibitory concentrations of cell growth activity IC50); under 8 µM in experiment [5] (MDA-MB-468, MDA-MB-468 cells, grade of the IC50 of Table 2, read-out: evaluation of ability to inhibit cell growth activity (IC50)); 15.4 µM in experiment [6] (setting [9]); 8 to 16 µM in experiment [6] (setting [10]); 7.65 µM in experiment [7] (setting [9]). Moreover, the IC50 in experiment [7] (setting [10]) is under 8 µM; in experiment [8] (SW480, 48 h, SW480 cells, 48 hours, 0.1% FCS, Resazurin, read-out: inhibitory concentrations of cell growth activity IC50), 7.56 µM; in experiment [8] (SW480, SW480 cells, grade of the IC50 of Table 2, read-out: evaluation of ability to inhibit cell growth activity (IC50)) it was under 8 µM. In addition, the “evaluation of ability to inhibit cell growth activity (IC50)” value is “◯” in experiment [3] (grade of the IC50 of Table 2); “◯” in experiment [4] (A549 cells, grade of the IC50 of Table 2); “◯” in experiment [6] (grade of the IC50 of Table 2).
